# ± gives the expanded uncertainty stated by the source.
# What was measured:
# [1] = 101 kPa, Liquid; for viscosity: Capillary tube (Ostwald / Ubbelohde) method
# [2] = mn = molality of the nth substance listed, in mol/kg; conditions: 101 kPa, Liquid, m2 = 0; for viscosity: Capillary tube (Ostwald / Ubbelohde) method
Structure (SMILES),mass density ([1]; 278.15 K) [kg/m3],viscosity ([1]; 278.15 K) [mPa·s],mass density ([1]; 283.15 K) [kg/m3],viscosity ([1]; 283.15 K) [mPa·s],mass density ([1]; 288.15 K) [kg/m3],viscosity ([1]; 288.15 K) [mPa·s],mass density ([1]; 293.15 K) [kg/m3],viscosity ([1]; 293.15 K) [mPa·s],mass density ([1]; 298.15 K) [kg/m3],viscosity ([1]; 298.15 K) [mPa·s],mass density ([1]; 303.15 K) [kg/m3],viscosity ([1]; 303.15 K) [mPa·s],mass density ([1]; 308.15 K) [kg/m3],viscosity ([1]; 308.15 K) [mPa·s],mass density ([1]; 313.15 K) [kg/m3],viscosity ([1]; 313.15 K) [mPa·s],viscosity ([2]; 278.15 K) [mPa·s],mass density ([2]; 278.15 K) [kg/m3],viscosity ([2]; 283.15 K) [mPa·s],mass density ([2]; 283.15 K) [kg/m3],further results
CO [methanol],803 ± 0.9,0.7418 ± 0.0065,798.9 ± 0.8,0.689 ± 0.0061,795.2 ± 0.8,0.641 ± 0.0057,792.1 ± 0.9,0.599 ± 0.0054,787.9 ± 0.8,0.5585 ± 0.005,783.7 ± 0.8,0.5199 ± 0.0047,779.5 ± 0.9,0.4857 ± 0.0044,775.2 ± 0.9,0.4559 ± 0.0042,–,–,–,–,–
CCO [ethanol] + COC(=O)[C@H](c1ccccc1Cl)N1CCc2sccc2C1.O=S(=O)(O)O,–,–,–,–,–,–,–,–,–,–,–,–,–,–,–,–,1.629 ± 0.014,800.5 ± 1,1.474 ± 0.013,797.8 ± 1,viscosity ([2]; 288.15 K): 1.333 ± 0.011 mPa·s; mass density ([2]; 288.15 K): 793.9 ± 0.8 kg/m3; viscosity ([2]; 293.15 K): 1.21 ± 0.01 mPa·s; mass density ([2]; 293.15 K): 790 ± 0.9 kg/m3; viscosity ([2]; 298.15 K): 1.099 ± 0.0094 mPa·s; mass density ([2]; 298.15 K): 785.7 ± 0.9 kg/m3; viscosity ([2]; 303.15 K): 0.9971 ± 0.0086 mPa·s; mass density ([2]; 303.15 K): 780.9 ± 0.9 kg/m3; viscosity ([2]; 308.15 K): 0.9083 ± 0.0079 mPa·s; mass density ([2]; 308.15 K): 778 ± 1.2 kg/m3; viscosity ([2]; 313.15 K): 0.828 ± 0.0072 mPa·s; mass density ([2]; 313.15 K): 773.3 ± 1 kg/m3
CCO [ethanol],800.5 ± 1,1.629 ± 0.014,797.8 ± 1,1.474 ± 0.013,793.9 ± 0.8,1.333 ± 0.011,790 ± 0.9,1.21 ± 0.01,785.7 ± 0.9,1.099 ± 0.0094,780.9 ± 0.9,0.9971 ± 0.0086,778 ± 1.2,0.9083 ± 0.0079,773.3 ± 1,0.828 ± 0.0072,–,–,–,–,–
CO [methanol] + COC(=O)[C@H](c1ccccc1Cl)N1CCc2sccc2C1.O=S(=O)(O)O,–,–,–,–,–,–,–,–,–,–,–,–,–,–,–,–,0.7418 ± 0.0065,803 ± 0.9,0.689 ± 0.0061,798.9 ± 0.8,viscosity ([2]; 288.15 K): 0.641 ± 0.0057 mPa·s; mass density ([2]; 288.15 K): 795.2 ± 0.8 kg/m3; viscosity ([2]; 293.15 K): 0.599 ± 0.0054 mPa·s; mass density ([2]; 293.15 K): 792.1 ± 0.9 kg/m3; viscosity ([2]; 298.15 K): 0.5585 ± 0.005 mPa·s; mass density ([2]; 298.15 K): 787.9 ± 0.8 kg/m3; viscosity ([2]; 303.15 K): 0.5199 ± 0.0047 mPa·s; mass density ([2]; 303.15 K): 783.7 ± 0.8 kg/m3; viscosity ([2]; 308.15 K): 0.4857 ± 0.0044 mPa·s; mass density ([2]; 308.15 K): 779.5 ± 0.9 kg/m3; viscosity ([2]; 313.15 K): 0.4559 ± 0.0042 mPa·s; mass density ([2]; 313.15 K): 775.2 ± 0.9 kg/m3

# Source: the NIST ThermoML archive (doi:10.1021/je1000796)
